Data on four compounds can be found in patent publication EP0044212B1, “Herbicidal o-alkylsulfonyloxy- and o-alkylsulfonylamino-benzenesulfonamides” (E.I. DU PONT DE NEMOURS AND COMPANY, priority 1980, dated 1982).

Molecules are shown by their SMILES.

In one assay the test system is Barnyardgrass. The assay can be described thus: Test E application to paddy water after transplanting of rice. The class given is in vivo, Echinochloa spp. An excerpt:
(§1) Test samples were formulated and applied directly to the paddy water three days after transplanting of rice. The test was maintained in a greenhouse, and plant response ratings were taken at the stated intervals after application.

Another assay deals with Wheat. Put plainly: Test B pre-emergence on Fallsington silt loam. The class given is in vivo. Also on record: scale not given here. The note with it: 28 days. In outline: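 Visual ratings of plant response, taken twenty-eight days after application, are reported. Compounds were applied to the soil surface before emergence of weeds sown in fertilized and limed Fallsington silt loam.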

The next assay relates to Cotton. The assay can be described thus: Test F over-the-top soil/foliage treatment. The class given is in vivo. Conditions: soil/foliage spray, ~14 days. Summed up:
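Visual injury ratings, made about fourteen days after spraying by comparison with untreated plants, reflect an over-the-top application of compound in non-phytotoxic solvent. Spraying took place roughly 14 days after seeding into Woodstown sandy loam under greenhouse conditions.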

Another assay deals with Water Chestnut. Put plainly: Test E application to paddy water after transplanting of rice. The class given is in vivo, Eleocharis spp.
Source text: as §1

Another assay deals with Cocklebur. Put plainly: Test F over-the-top soil/foliage treatment. The note with it: soil/foliage spray, ~14 days. The class given is in vivo, Xanthium pensylvanicum. Here is the method:
(§2) The test chemicals, dissolved in a non-phytotoxic solvent, were applied in an overall spray to the foliage and surrounding […] of selected plant species. […] Approximately fourteen days after treatment, all species were visually compared to untreated controls and rated for response to treatment.
(§3) All plant species were seeded in Woodstown sandy loam soil and grown in a greenhouse. The following species were grown in soil contained in plastic pots (25 cm diameter by 13 cm deep): soybeans, cotton, alfalfa, corn, rice, wheet, sorghum, velvetleaf (Abutilon theophrasti), sesbania (Sesbania exaltata), Cassia (Cassia tora), morningglory (Ipomoea hederacea), jimsonweed (Datura stramonium), cocklebur (Xanthium pensylvanicum), crabgrass (Digitaria spp.), nutsedge (Cyperus rotundus), barnyardgrass (Echinochloa crusgalli), giant foxtail (Setaria faberii) and wild oats (Avena fatua). The following species were grown in soil in a paper cup (12 cm diameter by 13 cm deep): sunflower, sugarbeets, and mustard. All plants were sprayed approximately 14 days after planting.

For another assay, the system named is Giant Foxtail. Put plainly: Test F over-the-top soil/foliage treatment. The note with it: soil/foliage spray, ~14 days. The arrangement: scale not given here. The class given is in vivo, Setaria faberii. How it is done: as §2, §3
A further assay has as its system Velvetleaf. Put plainly: Test B pre-emergence on Fallsington silt loam. The class given is in vivo, Abutilon theophrasti. Conditions: 28 days. The text has this: (§4) Two plastic bulb pans were filled with fertilized and limed Fallsington silt loam soil. One pan was planted with corn, sorghum, Kentucky bluegrass and several grassy weeds. The other pan was planted with cotton, soybeans, purple nutsedge (Cyperus rotundus), and several broadleaf weeds. The following grassy and broadleaf weeds were planted: crabgrass (Digitaria sanguinalis), barnyardgrass (Echinochloa crusgalli), wild oats (Avena fatua), johnsongrass (Sorghum halepense), dallisgrass (Paspalum dilatatum), giant foxtail (Setaria faberii), cheatgrass (Bromus secalinus), mustard (Brassica arvensis), cocklebur (Xanthium pensylvanicum), pigweed (Amaranthus retroflexus), morningglory (Ipomoea hederacea), cassia (Cassia tora), teaweed (Sida spinosa), velvetleaf (Abutilon theophrasti), and jimsonweed (Datura stramonium). A 12.5 cm diameter plastic pot was also filed with prepared soil and planted with rice and wheat. Another 12.5 cm pot was planted with sugarbeets. The above four containers were treated pre- emergence with several test compounds within the scope of the invention.
(§5) Twenty-eight days after treatment, the plants were evaluated and visually rated for response to the chemical treatments utilizing the rating system described previously for Test A. The data are summarized in Table B.

A further assay concerns Rice. The assay can be described thus: Test E application to paddy water after transplanting of rice. The class given is in vivo.
Source text: as §1

Another assay concerns Nutsedge. The assay can be described thus: Test F over-the-top soil/foliage treatment. The class given is in vivo, Cyperus rotundus. The arrangement: scale not given here. The note with it: soil/foliage spray, ~14 days. How it is done:
as §2, §3

The test system of the next assay is Teaweed. Put plainly: Test B pre-emergence on Fallsington silt loam. The class given is in vivo, Sida spinosa. Conditions: 28 days.
Source text: as §4, §5

A further assay relates to Ky. bluegrass. Put plainly: Test B pre-emergence on Fallsington silt loam. The class given is in vivo, Kentucky bluegrass. The arrangement: scale not given here. The note with it: 28 days.
Source text: as §4, §5

The test system of another assay is Mustard. The assay can be described thus: Test B pre-emergence on Fallsington silt loam. The class given is in vivo, Brassica arvensis. The note with it: 28 days.
Source text: as §4, §5

For the next assay, the system named is Jimsonweed. Put plainly: Test B pre-emergence on Fallsington silt loam. The class given is in vivo, Datura stramonium. The note with it: 28 days.
Source text: as §4, §5

The test system of the next assay is Annual Bluegrass. The assay can be described thus: Test D pre-/post-emergence weed control in cereals. The class given is in vivo, Poa annual. Conditions: 20 days. An excerpt:
Two ten-inch in diameter plastic pans lined with polyethylene liners were filled with prepared Fallsington slit loam soil. One pan was planted with seeds of wheat (Triticum aestivum), barley (Hordeum vulgarel, wild oats (Avena fatua), downy brome (Bromus tectorum), cheatgrass (Bromus secalinus), blackgrass (Alopecurus myosuroides), annual bluegrass (Poa annual, green foxtail (Setaria viridis), quack grass (Agropyron repens), Italian ryegrass (Lolium multiflorum) and ripgut brome (Bromus rigidus). The other pan was planted with seeds of Russian thistle (Salsola kali), tansy mustard (Descuraina pinnata), smartweed (Polygonum pensylvanicum), tumble mustard (Sisymbrium altissium) kochia (Kochia scoparia), shepherd's purse (Capsella bursa-pastoris), Matricaria inodora, black nightshade (Solanum nigrum), yellow rocket (Barbarea vulgaris), wild mustard (Brassica kaber) and wild buckwheat (Polygonum convolvulus). The above two pans were treated pre-emergence. At the same time two pans in which the above plant species were growing were treated post-emergence. Plant height at the time of treatment ranged from 1-15 cm depending on plant species.
The compounds applied were diluted with a non-phytotoxic solvent and sprayed over-the-top of the pans. An untreated control and a solvent alone control were included for comparison. All treatments were maintained in the greenhouse for 20 days at which time the treatments were compared to the controls and the effects visually rated. The recorded data, presented in Table D, indicate that certain compounds from within the scope of the invention have utility for pre- and/or post-emergence weed control in cereal crops such as wheat and barley.

Regarding `COc1cc(OC)nc(NC(=O)NS(=O)(=O)c2ccccc2OS(C)(=O)=O)n1` [Compound 1, N-[(4,6-Dimethoxypyrimidin-2-yl)aminocarbonyl]-2-hydroxybenzenesulfonamide, methanesulfonate], the “Barnyardgrass* 4 Weeks” value with Barnyardgrass (1 g/ha in paddy water), in the assay on Barnyardgrass (4 g/ha in paddy water) and in the assay with Barnyardgrass (8 g/ha in paddy water) was 0 throughout. Further, the Wheat response rating is recorded as 0 in the assay with Wheat (0.03 kg/ha) and 3G with Wheat (0.12 kg/ha). The compound further returned a Cotton response rating in the assay with Cotton (0.003 kg/ha) of 10C. For the same compound, the “Water Chestnut** 4 Weeks” value in the assay with Water Chestnut (1 g/ha in paddy water) was determined as 7G; in the assay with Water Chestnut (4 g/ha in paddy water), 8G; in the assay on Water Chestnut (8 g/ha in paddy water), 9G. The Cocklebur response rating was determined as 5G in the assay on Cocklebur (0.003 kg/ha) and 7G in the assay with Cocklebur (0.007 kg/ha). The “Giant Foxtail response rating” value with Giant Foxtail (0.003 kg/ha) and in the assay on Giant Foxtail (0.007 kg/ha) was 5G in each case. This compound came in with a Velvetleaf response rating in the assay on Velvetleaf (0.12 kg/ha) of 10C. The “Rice 4 Days” value in the assay with Rice (1 g/ha in paddy water), in the assay with Rice (4 g/ha in paddy water) and in the assay with Rice (8 g/ha in paddy water) was 0 in each case. Besides, the “Rice 4 Weeks” value in the assay with Rice (1 g/ha in paddy water), in the assay on Rice (4 g/ha in paddy water) and in the assay with Rice (8 g/ha in paddy water) was 0 throughout. Besides, the Nutsedge response rating in the assay on Nutsedge (0.003 kg/ha) stood at 3G; with Nutsedge (0.007 kg/ha), 5G; with Nutsedge (0.015 kg/ha), 10C; in the assay on Nutsedge (0.06 kg/ha), 10C. In the assay with Teaweed (0.03 kg/ha), this compound yielded a Teaweed response rating of 6G. Besides, the “Ky. bluegrass response rating” value with Ky. bluegrass (0.12 kg/ha) was 10C. The Mustard response rating with Mustard (0.03 kg/ha) and in the assay with Mustard (0.12 kg/ha) was 10C in each case.

In the case of `Cc1cc(C)nc(NC(=O)NS(=O)(=O)c2ccccc2OS(C)(=O)=O)n1` [Compound 3, N-[(4,6-dimethylpyrimidin-2-yl)aminocarbonyl]-2-hydroxybenzenesulfonamide, methanesulfonate], the Wheat response rating in the assay on Wheat (0.007 kg/ha) came to 0; in the assay with Wheat (0.015 kg/ha), 0; with Wheat (0.03 kg/ha), 5G. Moreover, the Cotton response rating with Cotton (0.007 kg/ha) stood at 10C. This compound came in with a Cocklebur response rating in the assay on Cocklebur (0.003 kg/ha) of 3G. Moreover, the “Giant Foxtail response rating” value in the assay on Giant Foxtail (0.003 kg/ha) and with Giant Foxtail (0.007 kg/ha) was 0 throughout. Also, the Velvetleaf response rating in the assay with Velvetleaf (0.007 kg/ha) and with Velvetleaf (0.015 kg/ha) was 0 in each case. The Nutsedge response rating with Nutsedge (0.003 kg/ha) came out at 5G; in the assay on Nutsedge (0.007 kg/ha) it was 7G. The Teaweed response rating in the assay with Teaweed (0.015 kg/ha) is reported as 0; with Teaweed (0.03 kg/ha), 4G; in the assay with Teaweed (0.12 kg/ha) it was 10C. In addition, the “Ky. bluegrass response rating” value came to 0 in the assay on Ky. bluegrass (0.007 kg/ha), 2G in the assay with Ky. bluegrass (0.015 kg/ha) and 10C in the assay with Ky. bluegrass (0.03 kg/ha). Also, the Jimsonweed response rating in the assay on Jimsonweed (0.007 kg/ha) and with Jimsonweed (0.015 kg/ha) was 0 in each case. For the same compound, the Mustard response rating in the assay with Mustard (0.007 kg/ha) stood at 5G; with Mustard (0.03 kg/ha), 10C; in the assay on Mustard (0.12 kg/ha) it was 10C.

Turning to `CCCS(=O)(=O)Oc1ccccc1S(=O)(=O)NC(=O)Nc1nc(OC)cc(OC)n1` [Compound 36, N-[(4,6-dimethoxypropimidin-2-yl)aminocarbonyl]-2-hydroxybenzenesulfonamide, 1-propanesulfonate], the “Barnyardgrass* 8 Weeks” value in the assay on Barnyardgrass (25 g/ha in paddy water) and in the assay with Barnyardgrass (100 g/ha in paddy water) was 0 throughout. The Wheat response rating with Wheat (0.06 kg/ha) and in the assay on Wheat (0.25 kg/ha) was 0 each time. In addition, the “Water Chestnut** 8 Weeks” value in the assay on Water Chestnut (25 g/ha in paddy water) and in the assay on Water Chestnut (100 g/ha in paddy water) was 10C in each case. The “Annual Bluegrass response rating” value in the assay on Annual Bluegrass (Post-Emergence, 0.015 kg/ha) turned out to be 2G; in the assay on Annual Bluegrass (Post-Emergence, 0.06 kg/ha), 3G; in the assay on Annual Bluegrass (Pre-Emergence, 0.015 kg/ha), 6G. Besides, the “Rice 1 Week” value with Rice (25 g/ha in paddy water) and in the assay with Rice (100 g/ha in paddy water) was 0 each time. In addition, the “Rice 8 Weeks” value in the assay on Rice (25 g/ha in paddy water) and with Rice (100 g/ha in paddy water) was 0 in each case. Moreover, the entries for the “Ky. bluegrass response rating” value with Ky. bluegrass (0.06 kg/ha) and in the assay with Ky. bluegrass (0.25 kg/ha) were 6G and 7G, respectively. In the assay on Jimsonweed (0.06 kg/ha), this compound returned a Jimsonweed response rating of 3G.

On to `CCCS(=O)(=O)Oc1ccccc1S(=O)(=O)NC(=O)Nc1nc(C)nc(OC)n1` [Compound 39, 2-hydroxy-N-[(4-methoxy-6-methyl-1,3,5-triazin-2-yl)aminocarbonyl]benzenesulfonamide, 1-propanesulfonate], for which the Wheat response rating with Wheat (0.06 kg/ha) and in the assay with Wheat (0.25 kg/ha) was 0 in each case. Also, the “Giant Foxtail response rating” value in the assay with Giant Foxtail (0.007 kg/ha) was 1G; in the assay with Giant Foxtail (0.03 kg/ha) it was 2G; in the assay with Giant Foxtail (0.06 kg/ha) it was 0; in the assay on Giant Foxtail (0.12 kg/ha) it was 0. Also, the Nutsedge response rating with Nutsedge (0.007 kg/ha) is on record as 5G; in the assay on Nutsedge (0.015 kg/ha), 0; in the assay with Nutsedge (0.03 kg/ha) it was 3G; with Nutsedge (0.06 kg/ha), 0; in the assay with Nutsedge (0.12 kg/ha) it was 1G. Also, the “Ky. bluegrass response rating” value in the assay with Ky. bluegrass (0.06 kg/ha) came out at 2G; with Ky. bluegrass (0.25 kg/ha), 4G.
